Test results from patent publication US20240315315A1, “COMPOSITION AND METHOD FOR SUPPRESSING PERCEPTION OF SMOKE OR VAPOR ODOR AND FOR SMOKING OR VAPING CESSATION” (University of Kentucky Research Foundation, priority 2023, published 2024).
Entries after “also recorded” stand apart in the source; their conditions may differ. Like-named read-outs stand apart in the source and are kept apart here.

How the values were obtained:
[1] = test system: perception of 1-pentanethiol; test: Split-nostril testing with 1-pentanethiol (physical vs dichorhinic mixtures); type: in vivo, human; details: for sex comparison of the effect on perceived intensity of 1-pentanethiol: males vs females, citronellal as physical mixture, pentanol as dichorhinic mixture; for perceived pleasantness of mixtures with 1-pentanethiol: isointense amounts mixed in air (N=29)
Protocol: In all experiments each subject was presented with odor samples in a unique random order. Subjects were instructed to take a single inhalation of each sample. Samples were separated by rest periods of at least 50 sec to minimize adaptation. Target odorants (1-pentanethiol or guaiacol) were sampled thrice by each subject prior to the initiation of an experiment. Dilutions of odorants (0.1-, 0.01-, 0.001-, and 0.0001-fold) were prepared in 10 ml of mineral oil in 250 ml brown Boston round bottles. To mimic the conditions of split-nostril testing, each dilution bottle was paired with a bottle containing 10 ml of mineral oil, with both bottles connected to the same Teflon nozzle. Control samples consisted of pairs of bottles containing 10 ml of mineral oil connected to a Teflon nozzle. Subjects simultaneously sniffed from two nozzles, either an odor dilution through one nostril and a control through the other nostril, or controls through both nostrils. Each subject (n=7-9) sniffed a unique random order of dilutions, rating intensity on a scale of 1-10. Dilutions that gave average intensities in the range of 4-5 were selected. Subjects simultaneously sniffed from two pairs of bottles, one pair per nostril. Treatment samples included no odorant controls and target odorants (1-pentanethiol or guaiacol) presented alone or mixed in air with masking odorants. Subjects experienced every sample four times, balanced so that pairings of odors were given twice per nostril, with the exception of the no odor control (10 ml of mineral oil in each bottle), which was presented twice. Subjects rated intensity on a gLMS scale (0-100) via a graphical user interface on a computer, followed by rating pleasantness on a linear scale of −10 to +10. Redjade software was used to produce unique random orders for each subject and to collect intensity and pleasantness ratings. Exclusion criteria were ratings of 0 on >25% of treatments (to exclude hyposmic subjects) and a Pearson correlation coefficient of <35% on test-retest across all treatments. To discriminate peripheral versus CNS odor interaction effects a split-nostril experiment was performed where odorants delivered simultaneously to different nostrils (dichorhinic mixture) can only affect perception via central nervous system (CNS) circuits versus odorants delivered together to the same nostril (physical mixture) where they can affect perception via both peripheral effects and central effects (FIG. 3A). Furthermore, by mixing the odorants in air there is an elimination of reduced volatilization of 1-pentanethiol as a cause of perception of reduced intensity.

perception of guaiacol [2] = test: Preliminary screen of odorants with guaiacol (physical mixtures in air); type: in vivo, human
Protocol: (§1) In all experiments each subject was presented with odor samples in a unique random order. Subjects were instructed to take a single inhalation of each sample. Samples were separated by rest periods of at least 50 sec to minimize adaptation. Target odorants (1-pentanethiol or guaiacol) were sampled thrice by each subject prior to the initiation of an experiment.
(§2) Dilutions of odorants (0.1-, 0.01-, 0.001-, and 0.0001-fold) were prepared in 10 ml of mineral oil in 250 ml brown Boston round bottles. To mimic the conditions of split-nostril testing, each dilution bottle was paired with a bottle containing 10 ml of mineral oil, with both bottles connected to the same Teflon nozzle. Control samples consisted of pairs of bottles containing 10 ml of mineral oil connected to a Teflon nozzle. Subjects simultaneously sniffed from two nozzles, either an odor dilution through one nostril and a control through the other nostril, or controls through both nostrils. Each subject (n=7-9) sniffed a unique random order of dilutions, rating intensity on a scale of 1-10. Dilutions that gave average intensities in the range of 4-5 were selected.
In preliminary screening only physical mixtures were tested. Air mixing was achieved by attaching pairs of 250 ml brown Boston round bottles, one containing the candidate antagonist odorant and the other the target odorant, to a single nozzle. Controls consisted of pairs of bottles, each containing 10 ml of mineral oil, connected to the same Teflon nozzle. Subjects simultaneously sniffed from two nozzles, either a physical mixture through one nostril and the control through the other nostril, or controls through both nostrils. Each sample was repeated so that each physical mixture was sniffed through the left and right nostrils. Each subject sniffed a unique random order of the samples, rating intensity on a scale of 1-10 using Google forms.
(§3) Like 1-pentanethiol, guaiacol is a key odorant in cigarette smoke and is one of the most important components of a simple mimic of cigarette smoke odor. […] A split-nostril experiment was performed to test these hypotheses and determine whether effects were peripheral or central. […] It was confirmed that effects of the physical and dichorhinic mixtures differed by comparing within-subject responses (FIG. 5B).

perception of guaiacol [3] = test: Split-nostril testing with guaiacol (physical vs dichorhinic mixtures); type: in vivo, human; details: for perceived pleasantness of mixtures with guaiacol: compared with guaiacol alone; for effect on perceived intensity of guaiacol: physical mixture (same nostril) vs dichorhinic mixture
Protocol: as §1, §2
Subjects simultaneously sniffed from two pairs of bottles, one pair per nostril. Treatment samples included no odorant controls and target odorants (1-pentanethiol or guaiacol) presented alone or mixed in air with masking odorants. Subjects experienced every sample four times, balanced so that pairings of odors were given twice per nostril, with the exception of the no odor control (10 ml of mineral oil in each bottle), which was presented twice. Subjects rated intensity on a gLMS scale (0-100) via a graphical user interface on a computer, followed by rating pleasantness on a linear scale of −10 to +10. Redjade software was used to produce unique random orders for each subject and to collect intensity and pleasantness ratings. Exclusion criteria were ratings of 0 on >25% of treatments (to exclude hyposmic subjects) and a Pearson correlation coefficient of <35% on test-retest across all treatments.
as §3

[4] = test system: perception of 1-pentanethiol; test: Preliminary screening for masking of 1-pentanethiol (solution mixtures on cotton balls, intensity and pleasantness ratings); type: in vivo; details: solution mixture screen, both odorants in the same cotton ball, human subjects (n=24)
Source text: In all experiments each subject was presented with odor samples in a unique random order. Subjects were instructed to take a single inhalation of each sample. Samples were separated by rest periods of at least 50 sec to minimize adaptation. Target odorants (1-pentanethiol or guaiacol) were sampled thrice by each subject prior to the initiation of an experiment. Dilutions (0.1-, 0.01-, 0.001-, and 0.0001-fold) of candidate masking odorants and the key cigarette smoke odorant 1-pentanethiol were prepared in dimethyl sulfoxide. Subjects (5 male and 7 female) sniffed 0.4 ml volumes absorbed in cotton balls from 0.8 ml brown glass vials and rated intensity on a scale of 1-10. Dilutions that gave average intensities in the range of 4-5 were selected for screening tests in which subjects rated intensity on a scale of 1-100 using a paper form. Subjects also rated whether the overall odor of each sample was pleasant or unpleasant (a forced-choice test). Seventeen (17) odorants commonly used as general masking odors or previously tested as cigarette additives designed to improve the perceived pleasantness of cigarette smoke were screened. […] While efficient for screening odorants, the mixing approach used (soaking of both odorants into the same cotton ball) fails to implicate mechanism because it may allow three potential causes for perception of reduced intensity of a target odor: CNS effects where circuit interactions lead to perception of reduced intensity, peripheral effects such as receptor antagonism, and (potentially) reduced volatilization of 1-pentanethiol. Further experiments were required to determine which of these causes explain the effect of citronellal.

[5] = dichorhinic mixture, odorants delivered to different nostrils
[6] = physical mixture delivered to the same nostril, mixed in air
[7] = listed as Methyl-2-methylbutyrate

CCCCCS [1-pentanethiol]
perceived pleasantness of the odorant alone ([1]; split-nostril experiment): moderately unpleasant

C=CC(C)(O)CCC=C(C)C (centres unmarked) [Linalool, reference compound]
interaction with guaiacol (perceived intensity) (perception of guaiacol [2]): three largest interactions
perceived pleasantness of mixtures with guaiacol (perception of guaiacol [3]): no effect of perceived pleasantness

CCCC(O)CCC1C(C)CCCC1(C)C (centres unmarked) [Norlimbanol, reference compound]
interaction with guaiacol (perceived intensity) (perception of guaiacol [2]): three largest interactions
perceived pleasantness of mixtures with guaiacol (perception of guaiacol [3]): no effect of perceived pleasantness

CC(C)=CCCC(C)CC=O (centres unmarked) [citronellal]
effect on perceived intensity of 1-pentanethiol [4]: most effective at reducing the perceived intensity of 1-pentanethiol; also recorded: strongest effect
effect on perceived intensity of 1-pentanethiol ([4]; listed as Citronellal): most effective masking odor
effect on perceived intensity of 1-pentanethiol [1, 5]: did not affect the perceived intensity of 1-pentanethiol
within-subject comparison of perceived 1-pentanethiol, physical vs dichorhinic mixtures ([1]; female participants): showed no difference
within-subject comparison of perceived 1-pentanethiol, physical vs dichorhinic mixtures ([1]; male participants): nearly all males perceived less 1-pentanethiol in physical mixtures
sex comparison of the effect on perceived intensity of 1-pentanethiol [1]: stronger in males than in females
effect on perceived intensity of 1-pentanethiol [1, 6]: reduced the perceived intensity of 1-pentanethiol; also recorded: suppress perception
effect on perceived intensity of 1-pentanethiol ([1]; physical mixture delivered to the same nostril, mixed in air, listed as Citronellal): decreases the perceived intensity of 1-pentanethiol only when delivered as a physical mixture
perceived pleasantness of mixtures with 1-pentanethiol ([1]; split-nostril experiment): improved pleasantness; also recorded: neither pleasant nor unpleasant on average; also recorded: alleviated

CCOC(=O)C(C)CC (centres unmarked) [ethyl-2-methylbutyrate, Ethyl 2-methylbutyrate]
interaction with guaiacol (perceived intensity) (perception of guaiacol [2]): promising effects

CCC(C)C(=O)OC (centres unmarked) [methyl-2-methylbutyrate, methyl 2-methylbutyrate]
interaction with guaiacol (perceived intensity) (perception of guaiacol [2]): promising effects
interaction with guaiacol (perceived intensity) (perception of guaiacol [2]; [7]): three largest interactions
perceived pleasantness of mixtures with guaiacol (perception of guaiacol [3]): no effect of perceived pleasantness
effect on perceived intensity of guaiacol in a physical mixture (perception of guaiacol [3]; male participants (N=6)): significant decrease
effect on perceived intensity of guaiacol (perception of guaiacol [3]): suppressed perception of guaiacol, but only when applied via the same nostril as a physical mixture; also recorded: suppress perception
effect on perceived intensity of guaiacol (perception of guaiacol [3]; [7]): decreases the perceived intensity of guaiacol

CCCCCO [pentanol]
effect on perceived intensity of 1-pentanethiol [4]: no effect on perception of 1-pentanethiol
effect on perceived intensity of 1-pentanethiol [1, 5]: increased the perceived intensity of 1-pentanethiol; also recorded: increases the perceived intensity of 1-pentanethiol only when delivered a dichorhinic mixture
effect on perceived intensity of 1-pentanethiol ([1]; dichorhinic mixture, odorants delivered to different nostrils, listed as 1-pentanol): additive effect mediated centrally
sex comparison of perceived pleasantness of mixtures with 1-pentanethiol ([1]; females (N=19) vs males (N=10)): less pleasant than did males; also recorded: more unpleasant than did males
sex comparison of the effect on perceived intensity of 1-pentanethiol [1]: apparent in both sexes, but appeared slightly stronger in females
effect on perceived intensity of 1-pentanethiol [1, 6]: did not result in any reduction in the perceived intensity of 1-pentanethiol
perceived pleasantness, dichorhinic vs physical mixtures with 1-pentanethiol ([1]; split-nostril experiment (N=29)): less pleasant than physical mixtures; also recorded: more unpleasant than physical mixtures
perceived pleasantness of mixtures with 1-pentanethiol ([1]; split-nostril experiment): did not improve perceived pleasantness; also recorded: little affected
